The test system of this assay is HL-60. Briefly: Dose inducing HL-60 cell adhesion related to skin tumor promotion. The assay is classed as functional, Homo sapiens.
The molecule `CN1CC(=O)N[C@H](CO)Cc2c[nH]c3cccc1c23` (racemic) yielded an ED50 of 3.9e-05 M l-1.
With `CN1c2cccc3[nH]cc(c23)C[C@@H](CO)NC(=O)[C@@H]1C(C)(C)C` (racemic), the ED50 came to 1.1e-07 M l-1.
Consider `C[C@H]1C(=O)N[C@H](CO)Cc2c[nH]c3cccc(c23)N1C` (racemic), for which the ED50 came out at 3.7e-06 M l-1.

The values are drawn from ChEMBL document CHEMBL1126081, “Active conformation of a tumor promoter, teleocidin. A molecular dynamics study” (1992).
